# Reference: ChEMBL document CHEMBL1201862, “PubChem BioAssay data set” (2004)
#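 Compound exposure: 48 hours, 5 concentrations, 96-well plates. GI50 marks 50% less growth.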 Calls of active or inactive are those of the source. Rule as the data show it: active = GI50 up to about 1.1 µM and inactive = higher.
# Tests used:
# Experiment in all cases: NCI-60 cell line screen, 48 h
# A549 = tested on: A549
# CAKI-1 = tested on: CAKI-1
# CCRF-CEM = tested on: CCRF-CEM
# EKVX = tested on: EKVX
# HCT-15 = tested on: HCT-15
# HT-29 = tested on: HT-29
# M14 = tested on: M14
# NCI-H226 = tested on: NCI-H226
# NCI-H522 = tested on: NCI-H522
# OVCAR-3 = tested on: OVCAR-3
# OVCAR-8 = tested on: OVCAR-8
# RPMI-8226 = tested on: RPMI-8226
# RXF 393 = tested on: RXF 393
# SF-539 = tested on: SF-539
# SK-OV-3 = tested on: SK-OV-3
# SR = tested on: SR
# SW-620 = tested on: SW-620
# U-251 = tested on: U-251
# UACC-257 = tested on: UACC-257
# DMS-114 = tested on: DMS-114
SMILES,GI50 (A549),GI50 (CAKI-1),GI50 (CCRF-CEM),GI50 (EKVX),GI50 (HCT-15) [µM],GI50 (HT-29),GI50 (M14),GI50 (NCI-H226),GI50 (NCI-H522),GI50 (OVCAR-3),GI50 (OVCAR-8),GI50 (RPMI-8226),GI50 (RXF 393),GI50 (SF-539),GI50 (SK-OV-3),GI50 (SR),GI50 (SW-620),GI50 (U-251),GI50 (UACC-257),GI50 (DMS-114)
NC1CCC(c2cc3ccccc3s2)(N2CCCCC2)CC1 (stereo not drawn),1.77 µM (inactive),2.57 µM (inactive),1.01 µM (active),1.41 µM (inactive),1.77,1.21 µM (inactive),1.54 µM (inactive),24.1 µM (inactive),1.76 µM (inactive),1.27 µM (inactive),1.72 µM (inactive),0.817 µM (active),6.01 µM (inactive),2.06 µM (inactive),10.6 µM (inactive),1.54 µM (inactive),1.61 µM (inactive),1.53 µM (inactive),1.62 µM (inactive),–
CCCNC(=O)Cn1c(-c2ccccc2)cc2ccccc21,67.1 µM (inactive),52 µM (inactive),> 100 µM (inactive),30.6 µM (inactive),75,93.8 µM (inactive),> 100 µM (inactive),> 100 µM (inactive),23.7 µM (inactive),91.8 µM (inactive),> 100 µM (inactive),> 100 µM (inactive),18.5 µM (inactive),> 100 µM (inactive),29.4 µM (inactive),> 100 µM (inactive),> 100 µM (inactive),> 100 µM (inactive),> 100 µM (inactive),–
COc1cc2c(cc1OC)C(C(=O)c1cccc(OC)c1OC)C(=O)N(C)CC2 (stereo not drawn),> 100 µM (inactive),> 100 µM (inactive),> 100 µM (inactive),–,> 100,> 100 µM (inactive),> 100 µM (inactive),> 100 µM (inactive),> 100 µM (inactive),> 100 µM (inactive),> 100 µM (inactive),> 100 µM (inactive),> 100 µM (inactive),–,> 100 µM (inactive),–,> 100 µM (inactive),> 100 µM (inactive),> 100 µM (inactive),56.5 µM (inactive)
N=C1C(=N)c2ccccc2-c2ccccc21,1.74 µM (inactive),1.71 µM (inactive),0.376 µM (active),1.9 µM (inactive),1.55,1.83 µM (inactive),1.05 µM (active),1.82 µM (inactive),1.21 µM (inactive),0.354 µM (active),1.03 µM (active),0.959 µM (active),1.82 µM (inactive),0.787 µM (active),1.7 µM (inactive),0.695 µM (active),1 µM (active),1.07 µM (active),0.692 µM (active),–
Cc1cc(N(C)c2ccccc2)nc(N(C)c2ccccc2)n1,27.5 µM (inactive),> 100 µM (inactive),23.6 µM (inactive),36.1 µM (inactive),32.1,17.9 µM (inactive),41.3 µM (inactive),34.6 µM (inactive),36.9 µM (inactive),33 µM (inactive),33 µM (inactive),28.8 µM (inactive),22 µM (inactive),27.1 µM (inactive),> 100 µM (inactive),27.7 µM (inactive),43.1 µM (inactive),30.7 µM (inactive),25.4 µM (inactive),–
O=CC12C3CCC1C2C(=O)C3 (stereo not drawn),> 100 µM (inactive),> 100 µM (inactive),> 100 µM (inactive),> 100 µM (inactive),> 100,> 100 µM (inactive),> 100 µM (inactive),> 100 µM (inactive),> 100 µM (inactive),> 100 µM (inactive),> 100 µM (inactive),> 100 µM (inactive),> 100 µM (inactive),> 100 µM (inactive),> 100 µM (inactive),> 100 µM (inactive),> 100 µM (inactive),> 100 µM (inactive),> 100 µM (inactive),–
N#CC(c1ccccc1)N(CCc1ccccc1)C(=O)Oc1ccccc1 (stereo not drawn),> 100 µM (inactive),> 100 µM (inactive),> 100 µM (inactive),> 100 µM (inactive),> 100,> 100 µM (inactive),> 100 µM (inactive),34.1 µM (inactive),> 100 µM (inactive),> 100 µM (inactive),> 100 µM (inactive),> 100 µM (inactive),46.9 µM (inactive),> 100 µM (inactive),> 100 µM (inactive),> 100 µM (inactive),> 100 µM (inactive),> 100 µM (inactive),> 100 µM (inactive),–
COc1ccc(NC2=NCCO2)c2c1CCCC2,40.7 µM (inactive),54.1 µM (inactive),25.5 µM (inactive),47.8 µM (inactive),31.6,46.8 µM (inactive),29.2 µM (inactive),21.9 µM (inactive),31.8 µM (inactive),29.1 µM (inactive),36.7 µM (inactive),24.6 µM (inactive),21.4 µM (inactive),33.2 µM (inactive),18.4 µM (inactive),29.2 µM (inactive),47.4 µM (inactive),25.8 µM (inactive),26.3 µM (inactive),–
COC1=C(Cl)C(=O)c2c(O)ccc(O)c2C1=O,4.01 µM (inactive),0.541 µM (active),0.18 µM (active),0.902 µM (active),1.34,3.15 µM (inactive),0.541 µM (active),11.2 µM (inactive),0.119 µM (active),0.476 µM (active),2 µM (inactive),0.272 µM (active),1.3 µM (inactive),0.578 µM (active),16 µM (inactive),0.227 µM (active),0.1 µM (active),3.53 µM (inactive),1.77 µM (inactive),–
O=C1Nc2ccccc2C(=O)O/C(Cc2ccccc2)=N\c2ccccc21,> 100 µM (inactive),> 100 µM (inactive),36.1 µM (inactive),> 100 µM (inactive),> 100,> 100 µM (inactive),> 100 µM (inactive),> 100 µM (inactive),> 100 µM (inactive),> 100 µM (inactive),> 100 µM (inactive),> 100 µM (inactive),> 100 µM (inactive),> 100 µM (inactive),> 100 µM (inactive),> 100 µM (inactive),> 100 µM (inactive),> 100 µM (inactive),54.6 µM (inactive),–
O=C(c1ccccn1)c1nc(-c2ccc(Cl)c(Cl)c2)nc2ccc(Cl)cc12,41.6 µM (inactive),56.6 µM (inactive),71.1 µM (inactive),74.5 µM (inactive),39.2,> 100 µM (inactive),> 100 µM (inactive),23.1 µM (inactive),–,42.7 µM (inactive),> 100 µM (inactive),> 100 µM (inactive),18.7 µM (inactive),18.1 µM (inactive),36.4 µM (inactive),–,> 100 µM (inactive),44.1 µM (inactive),> 100 µM (inactive),64.6 µM (inactive)
COc1ccc(/C=N/Nc2nc(=S)[nH]c3[nH]ncc23)cc1,54.3 µM (inactive),32.7 µM (inactive),24.7 µM (inactive),59.4 µM (inactive),> 100,48.5 µM (inactive),41.8 µM (inactive),> 100 µM (inactive),26.2 µM (inactive),60.7 µM (inactive),> 100 µM (inactive),2.5 µM (inactive),> 100 µM (inactive),> 100 µM (inactive),> 100 µM (inactive),> 100 µM (inactive),> 100 µM (inactive),19.1 µM (inactive),55.6 µM (inactive),–
CC(C)=CCC/C(=C\CC/C(=C\CCc1ccoc1)C(=O)O)C(=O)O,> 100 µM (inactive),> 100 µM (inactive),> 100 µM (inactive),> 100 µM (inactive),> 100,> 100 µM (inactive),> 100 µM (inactive),> 100 µM (inactive),> 100 µM (inactive),> 100 µM (inactive),> 100 µM (inactive),> 100 µM (inactive),> 100 µM (inactive),> 100 µM (inactive),> 100 µM (inactive),> 100 µM (inactive),> 100 µM (inactive),> 100 µM (inactive),> 100 µM (inactive),–
O=C(O)CCC(=O)c1ccc2ccc3cccc4ccc1c2c34,62.2 µM (inactive),> 100 µM (inactive),45.3 µM (inactive),58.2 µM (inactive),38,63.8 µM (inactive),> 100 µM (inactive),49 µM (inactive),83.8 µM (inactive),53.7 µM (inactive),66.7 µM (inactive),63 µM (inactive),46.5 µM (inactive),27.7 µM (inactive),> 100 µM (inactive),45.7 µM (inactive),59.2 µM (inactive),48.5 µM (inactive),33 µM (inactive),–
Cc1c2ccncc2c(C)c2c1[nH]c1ccc(Cl)cc12,–,–,1.36 µM (inactive),4.84 µM (inactive),1.75,2.2 µM (inactive),4.57 µM (inactive),3.17 µM (inactive),2.36 µM (inactive),2.2 µM (inactive),1.22 µM (inactive),1.59 µM (inactive),4.58 µM (inactive),2.44 µM (inactive),7.19 µM (inactive),–,1.52 µM (inactive),5.13 µM (inactive),–,2.07 µM (inactive)
COc1cc(OC)c(-c2oc3ccccc3c(=O)c2O)c(OC)c1,4.9 µM (inactive),5.74 µM (inactive),6.75 µM (inactive),39.4 µM (inactive),2.99,3.08 µM (inactive),2.55 µM (inactive),> 100 µM (inactive),2.75 µM (inactive),2.63 µM (inactive),10.4 µM (inactive),4.28 µM (inactive),2.43 µM (inactive),8.73 µM (inactive),5.94 µM (inactive),3.69 µM (inactive),3.62 µM (inactive),3.84 µM (inactive),> 91.6 µM (inactive),–
